The structures appear in SMILES notation. Like-named read-outs stand apart in the source and are kept apart here.

For orientation: IC50 means the concentration that gives 50% inhibition.

Assay [1] relates to Bub1 kinase (pre-induced phospho-histone 2A). In words: H2A Abrogation-Assay (cell-based mechanistic assay, pre-treatment with Nocodazole). As to conditions: Nocodazole 1 μg/ml 16 h, then test compound 1 h; read-out: Biological Assay 4.2: H2A Abrogation IC50.
For assay [2], the target named is T1, catalytic domain of human Bub1 (amino acids 704-1085) (Homo sapiens, UniProt O43683).
T1 construct: catalytic domain of human Bub1 (amino acids 704-1085); His6 (N); made in house; host or cells: Hi5 insect cells
In words: Equilibrium probe competition assay (TR-FRET kinase binding assay). The conditions noted are these: read-out: Assay 5 IC50. On the procedure:
The half-life of prodrugs (Table 3) poses a challenge for the verification of their biological activity. The Bub1 enzymatic activity assay (as per Biological Assay 1.0 infra) requires a minimum reaction time of 60 minutes in order to be able to assess the inhibitory activity of the compounds. During this time typically 20% to 60% of the prodrugs have been already converted to their corresponding drugs at the pH of 7.5 at which the assay is performed. Ideally one would perform the biological assay at a pH at which the prodrug is stable (e.g. pH 4). […] Alternatively, an assay requiring shorter incubation times would better estimate the binding affinities of the prodrugs. […] Extrapolating the stability data from Tables 3 and 4, one would expect at this time point most of the compound present in the test solution to be the prodrug.
FIGS. 1 and 2 combine the results from Biological Assay 5 with those from Biological Assay 6. The binding affinities over time of drug and prodrug pairs are shown as pIC50 together with the prodrug stability, and the pIC50 to be expected if only the drug present in the sample was responsible for the activity in the assay. Extrapolating the pIC50 from these graphs to time 0 (at which 100% of prodrug is present in the sample), the actual affinity of the drug and prodrug can be inferred. Secondly, looking at the differences between expected and real pIC50 an estimate can be made about the contribution of the prodrug to the observed activity.
Biological Assay 5.0: Equilibrium Probe Competition Assay:
Bub1 binding affinity of compounds described in the present invention were quantified using a time-resolved fluorescence energy transfer (TR-FRET) kinase binding assay which measures displacement of the synthetic fluorescent probe 5-[({2-[2-({2-[1-(4-ethoxy-2,6-difluorobenzyl)-1H-indazol-3-yl]-4-(pyridin-4-ylamino)pyrimidin-5-yl}oxy)ethoxy]ethyl}carbamothioyl)amino]-2-(6-hydroxy-3-oxo-3H-xanthen-9-yl)benzoic acid (6-5-1) by the (recombinant) catalytic domain of human Bub1 (amino acids 704-1085). The enzyme was expressed in Hi5 insect cells with N-terminal 6×His/AviTag® sequences, purified by affinity- (Ni-NTA) and size exclusion chromatography and site-specific biotinylated ex-vivo using a commercially available kit (Avidity).
In a typical assay 11 different concentrations of each compound (0.1 nM, 0.33 nM, 1.1 nM, 3.8 nM, 13 nM, 44 nM, 0.15 μM, 0.51 μM, 1.7 μM, 5.9 μM and 20 μM) were tested in duplicate within the same microtiter plate. To this end, 100-fold concentrated compound solutions (in DMSO) were made by serial dilution (1:3.4) of freshly prepared 2 mM stocks in a clear low volume 384-well source microtiter plate (Greiner Bio-One, Frickenhausen, Germany), from which 50 nl of compounds were transferred into a black low volume test microtiter plate from the same supplier. Subsequently 2 μL of a solution containing biotinylated Bub1 (the final concentration of Bub1 was adjusted depending on the activity of the enzyme lot in order to be within the linear dynamic range of the assay: typically ˜[…] were used) and 1 nM Streptavidin Terbium Cryptate (Cisbio, No. 610SATLB) in aqueous assay buffer [50 mM Tris/HCl pH 7.5, 200 mM potassium chloride (KCl), 1.0 mM dithiothreitol (DTT), 0.1 mM sodium ortho-vanadate, 1% (v/v) glycerol, 0.01% (w/v) bovine serum albumine (BSA), 0.005% (v/v) Triton X-100 (Sigma), were added to the compounds in the test plate and the mixture was incubated for 15 min at 22° C. to allow pre-equilibration of the putative enzyme-inhibitor complexes before the start of the probe competition reaction, which was initiated by the addition of 3 μL 1.67-fold concentrated solution (in assay buffer) of 6-5-1 (final concentration: 1.5 nM). The resulting mixture (5 μL final volume) was incubated at 22° C. during 0, 15, 30, 60, 120, 240 and 1440 min. […]
Background: Time-resolved FRET reads energy transfer from a long-lived donor to a nearby acceptor.

On to `COc1cnccc1Nc1nc(-c2nn(Cc3c(F)cc(OCCO)cc3F)c3ccccc23)ncc1OC` [Example 2-1-3, 2-{3,5-difluoro-4-[(3-{5-methoxy-4-[(3-methoxypyridin-4-yl)amino]pyrimidin-2-yl}-1H-indazol-1-yl)methyl]phenoxy}ethanol], for which the IC50 in assay [1] worked out at 29 nM; in assay [2] (Time 15 min), 1.7 nM; in assay [2] (Time 30 min), 1.3 nM; in assay [2] (Time 60 min) it was 0.9 nM; in assay [2] (Time 90 min), 0.54 nM; in assay [2] (Time 120 min), 0.49 nM. Also, the results for the IC50 in assay [2] (Time 240 min) and in assay [2] (Time 1440 min) were 0.31 nM and 0.2 nM, respectively.
`COc1cnc(-c2nn(Cc3c(F)cc(OCCO)cc3F)c3ccccc23)nc1Nc1ccnc(C)c1` [Example 2-1-2, 2-{3,5-difluoro-4-[(3-{5-methoxy-4-[(2-methylpyridin-4-yl)amino]pyrimidin-2-yl}-1H-indazol-1-yl)methyl]phenoxy}ethanol]: the half-maximal inhibitory concentration (IC50) turned out to be 11 nM in assay [1]; 1.6 nM in assay [2] (Time 15 min); 3.5 nM in assay [2] (Time 30 min); 2.2 nM in assay [2] (Time 60 min); 3.2 nM in assay [2] (Time 90 min); 2.9 nM in assay [2] (Time 120 min). The IC50 in assay [2] (Time 240 min) stood at 4 nM; in assay [2] (Time 1440 min) it was 2.4 nM.

The values are drawn from US10350206B2, “Benzyl substituted indazoles as BUB1 inhibitors” (Bayer Pharma Aktiengesellschaft, priority 2014, dated 2019).
